Reference: PubChem BioAssay AID328 (DTP/NCI, 2004)
Values joined by “and” are separate entries in the source; they are usually repeats but may differ in a detail not shown here. Equal entries are not always repeated. Toxic doses and inconclusive results are not listed.

System: BDF1 mice, P388 leukemia ip, median survival T/C
Assay: NCI In Vivo Anticancer Drug Screen. Data for tumor model P388 Leukemia (intraperitoneal) in B6D2F1 (BDF1) mice
Conditions: endpoint: median survival time, higher = longer survival
Method in brief: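 Reported as T/C, where T is the survival measurement in dosed animals and C the same measurement in vehicle controls.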

[1] = dose: 100.0 mg/kg/injection, schedule: Q04DX003 (ip), vehicle: saline with Tween-80
[2] = dose: 400.0 mg/kg/injection, schedule: Q04DX003 (ip), vehicle: saline with Tween-80
[3] = dose: 50.0 mg/kg/injection, schedule: Q01DX009 (ip), vehicle: saline with Tween-80
[4] = dose: 100.0 mg/kg/injection, schedule: Q01DX009 (ip), vehicle: saline with Tween-80
[5] = dose: 200.0 mg/kg/injection, schedule: Q01DX009 (ip), vehicle: saline with Tween-80
[6] = dose: 50.0 mg/kg/injection, schedule: Q04DX003 (ip), vehicle: saline
[7] = dose: 100.0 mg/kg/injection, schedule: Q04DX003 (ip), vehicle: saline
[8] = dose: 100.0 mg/kg/injection, schedule: Q01DX009 (ip), vehicle: Klucel (hydroxypropylcellulose) (HPC)
[9] = dose: 200.0 mg/kg/injection, schedule: Q01DX009 (ip), vehicle: Klucel (hydroxypropylcellulose) (HPC)

Q: `COc1cc([C@@H]2c3cc4c(cc3[C@H](SC(=N)N)[C@H]3COC(=O)[C@H]23)OCO4)cc(OC)c1OC` was tested. Which T/C (dose: 1.4 mg/kg/injection, schedule: Q01DX010 (ip), vehicle: carboxymethylcellulose (CMC)) did it give?
A: 105 % of control

Q: What about the T/C (dose: 2.8 mg/kg/injection, schedule: Q01DX010 (ip), vehicle: carboxymethylcellulose (CMC)) of the same compound?
A: 100 % of control

Q: And the T/C (dose: 5.6 mg/kg/injection, schedule: Q01DX010 (ip), vehicle: carboxymethylcellulose (CMC))?
A: 110 % of control

Q: And the T/C (dose: 18.0 mg/kg/injection, schedule: Q01DX009 (ip), vehicle: Klucel (hydroxypropylcellulose) (HPC))?
A: 152 % of control

Q: What about the T/C (dose: 27.0 mg/kg/injection, schedule: Q01DX009 (ip), vehicle: Klucel (hydroxypropylcellulose) (HPC)) of the same compound?
A: 171 % of control

Q: How did the T/C [1] turn out when `COC(=O)C(Br)C(OC)c1ccc(Cl)cc1` (stereo not drawn) was run?
A: 109 % of control

Q: And the T/C (dose: 200.0 mg/kg/injection, schedule: Q04DX003 (ip), vehicle: saline with Tween-80)?
A: 109 % of control

Q: What about the T/C [2] of the same compound?
A: 118 % of control

Q: Which T/C (dose: 25.0 mg/kg/injection, schedule: Q01DX009 (ip), vehicle: saline with Tween-80) does the source give for `O=C1N=C(Oc2ccccc2)SC1=O` here?
A: 103 % of control and 104 % of control

Q: What about the T/C (dose: 50.0 mg/kg/injection, schedule: Q01DX009 (ip), vehicle: saline + alcohol) of the same compound?
A: 113 % of control

Q: And the T/C [3]?
A: 95 % of control and 108 % of control

Q: What about the T/C (dose: 100.0 mg/kg/injection, schedule: Q01DX009 (ip), vehicle: saline + alcohol) of the same compound?
A: 120 % of control

Q: What about the T/C [4] of the same compound?
A: 117 % of control and 123 % of control

Q: And the T/C (dose: 200.0 mg/kg/injection, schedule: Q01DX009 (ip), vehicle: saline + alcohol)?
A: 113 % of control

Q: What about the T/C [5] of the same compound?
A: 117 % of control and 121 % of control

Q: How did the T/C (dose: 50.0 mg/kg/injection, schedule: Q01DX001 (ip), vehicle: saline) turn out when `C[S+](C)CC(=O)c1ccccc1` was run?
A: 116 % of control

Q: And the T/C [6]?
A: 91 % of control

Q: And the T/C (dose: 100.0 mg/kg/injection, schedule: Q01DX001 (ip), vehicle: saline)?
A: 116 % of control

Q: What about the T/C [7] of the same compound?
A: 95 % of control

Q: What about the T/C (dose: 200.0 mg/kg/injection, schedule: Q01DX001 (ip), vehicle: saline) of the same compound?
A: 112 % of control

Q: What about the T/C (dose: 200.0 mg/kg/injection, schedule: Q04DX003 (ip), vehicle: saline) of the same compound?
A: 95 % of control

Q: What does the source list for `O=C(/C=C/c1ccc2c(c1)OCO2)c1ccccc1`?
A: T/C (dose: 50.0 mg/kg/injection, schedule: Q01DX009 (ip), vehicle: Klucel (hydroxypropylcellulose) (HPC)): 114 % of control and 105 % of control; T/C [8]: 112 % of control and 100 % of control; T/C (dose: 100.0 mg/kg/injection, schedule: Q04DX003 (ip), vehicle: Klucel (hydroxypropylcellulose) (HPC)): 104 % of control; T/C [9]: 112 % of control; T/C (dose: 200.0 mg/kg/injection, schedule: Q04DX003 (ip), vehicle: Klucel (hydroxypropylcellulose) (HPC)): 100 % of control; T/C (dose: 400.0 mg/kg/injection, schedule: Q04DX003 (ip), vehicle: Klucel (hydroxypropylcellulose) (HPC)): 95 % of control

Q: Which T/C (dose: 25.0 mg/kg/injection, schedule: Q04DX003 (ip), vehicle: saline) does the source give for `c1nc(N2CC2)c2cnn(C3CCCCO3)c2n1` (stereo not drawn) here?
A: 109 % of control

Q: What about the T/C [6] of the same compound?
A: 100 % of control

Q: What about the T/C [8] of the same compound?
A: 95 % of control

Q: And the T/C [7]?
A: 100 % of control

Q: What about the T/C (dose: 150.0 mg/kg/injection, schedule: Q04DX003 (ip), vehicle: Klucel (hydroxypropylcellulose) (HPC)) of the same compound?
A: 120 % of control

Q: What about the T/C [9] of the same compound?
A: 116 % of control

Q: What about the T/C (dose: 225.0 mg/kg/injection, schedule: Q04DX003 (ip), vehicle: Klucel (hydroxypropylcellulose) (HPC)) of the same compound?
A: 120 % of control

Q: For `O=C(Nc1ccccc1)OCCBr`, which T/C [3] is on record?
A: 99 % of control

Q: And the T/C [4]?
A: 107 % of control

Q: What about the T/C [5] of the same compound?
A: 107 % of control

Q: `CSC1C(=O)Nc2c1cccc2[N+](=O)[O-]` (stereo not drawn) was tested. Which T/C (dose: 50.0 mg/kg/injection, schedule: Q04DX002 (ip), vehicle: saline with Tween-80) did it give?
A: 96 % of control

Q: What about the T/C (dose: 100.0 mg/kg/injection, schedule: Q04DX002 (ip), vehicle: saline with Tween-80) of the same compound?
A: 92 % of control

Q: What about the T/C (dose: 200.0 mg/kg/injection, schedule: Q04DX002 (ip), vehicle: saline with Tween-80) of the same compound?
A: 99 % of control

Q: For `NCCNCc1c[nH]c(=O)[nH]c1=O`, which T/C [3] is on record?
A: 113 % of control

Q: What about the T/C [4] of the same compound?
A: 111 % of control

Q: What about the T/C [5] of the same compound?
A: 101 % of control

Q: How did the T/C [1] turn out when `O=S1(=O)CC2(N3CCOCC3)C3CCC(C3)C21` (stereo not drawn) was run?
A: 111 % of control

Q: And the T/C [2]?
A: 92 % of control

Q: With `CN(C)c1ccc(/C=C/c2ccnc3c(Cl)cccc23)cc1` as the compound, how does the T/C [3] read?
A: 94 % of control

Q: What about the T/C [4] of the same compound?
A: 98 % of control

Q: What about the T/C [5] of the same compound?
A: 100 % of control
